ChEMBL document CHEMBL4627344, “Synthesis, biological evaluation and virtual screening of some acridone derivatives as potential anticancer agents” (2020)

What was measured:
Assay type in all cases: functional
[1] = test system: HCC 2998; experiment: Antiproliferative activity against human HCC2998 cells assessed as inhibition of cell growth at 10 uM measured after 48 hrs by SRB assay relative to control; conditions: HCC 2998, 48 h, read-out: GI
[2] = test system: HT-29; experiment: Antiproliferative activity against human HT-29 cells assessed as inhibition of cell growth at 10 uM measured after 48 hrs by SRB assay relative to control; conditions: HT-29, 48 h, read-out: GI
[3] = test system: KM12; experiment: Antiproliferative activity against human KM12 cells assessed as inhibition of cell growth at 10 uM measured after 48 hrs by SRB assay relative to control; conditions: KM12, 48 h, read-out: GI
[4] = test system: M14; experiment: Antiproliferative activity against human M14 cells assessed as inhibition of cell growth at 10 uM measured after 48 hrs by SRB assay relative to control; conditions: M14, 48 h, read-out: GI
[5] = test system: IGROV-1; experiment: Antiproliferative activity against human IGROV1 cells assessed as inhibition of cell growth at 10 uM measured after 48 hrs by SRB assay relative to control; conditions: IGROV-1, 48 h, read-out: GI
[6] = test system: NCI/ADR-RES; experiment: Antiproliferative activity against human NCI-ADR-RES cells assessed as inhibition of cell growth at 10 uM measured after 48 hrs by SRB assay relative to control; conditions: read-out: GI
[7] = test system: ACHN; experiment: Antiproliferative activity against human ACHN cells assessed as inhibition of cell growth at 10 uM measured after 48 hrs by SRB assay relative to control; conditions: read-out: GI
[8] = test system: MDA-MB-468; experiment: Antiproliferative activity against human MDA-MB-468 cells assessed as inhibition of cell growth at 10 uM measured after 48 hrs by SRB assay relative to control; conditions: MDA-MB-468, 48 h, read-out: GI
[9] = test system: HL-60(TB); experiment: Antiproliferative activity against human HL-60(TB) cells assessed as inhibition of cell growth measured after 48 hrs by SRB assay; conditions: HL-60, 48 h
[10] = test system: A549; experiment: Antiproliferative activity against human A549 cells assessed as inhibition of cell growth measured after 48 hrs by SRB assay; conditions: A549, 48 h
[11] = test system: HOP-92; experiment: Antiproliferative activity against human HOP92 cells assessed as inhibition of cell growth measured after 48 hrs by SRB assay; conditions: HOP-92, 48 h
[12] = test system: SF-268; experiment: Antiproliferative activity against human SF268 cells assessed as inhibition of cell growth measured after 48 hrs by SRB assay; conditions: SF-268, 48 h
[13] = test system: LOX IMVI; experiment: Antiproliferative activity against human LOXIMVI cells assessed as inhibition of cell growth measured after 48 hrs by SRB assay
[14] = test system: Malme-3M; experiment: Antiproliferative activity against human MALME-3M cells assessed as inhibition of cell growth measured after 48 hrs by SRB assay
[15] = test system: MDA-MB-435; experiment: Antiproliferative activity against human MDA-MB-435 cells assessed as inhibition of cell growth measured after 48 hrs by SRB assay; conditions: MDA-MB-435, 48 h
[16] = test system: IGROV-1; experiment: Antiproliferative activity against human IGROV1 cells assessed as inhibition of cell growth measured after 48 hrs by SRB assay; conditions: IGROV-1, 48 h
[17] = test system: OVCAR-3; experiment: Antiproliferative activity against human OVCAR3 cells assessed as inhibition of cell growth measured after 48 hrs by SRB assay; conditions: OVCAR-3, 48 h
[18] = test system: OVCAR-4; experiment: Antiproliferative activity against human OVCAR4 cells assessed as inhibition of cell growth measured after 48 hrs by SRB assay; conditions: OVCAR-4, 48 h
[19] = test system: OVCAR-5; experiment: Antiproliferative activity against human OVCAR5 cells assessed as inhibition of cell growth measured after 48 hrs by SRB assay; conditions: OVCAR-5, 48 h
[20] = test system: 786-0; experiment: Antiproliferative activity against human 786-0 cells assessed as inhibition of cell growth measured after 48 hrs by SRB assay; conditions: 786-0, 48 h
[21] = test system: SN12C; experiment: Antiproliferative activity against human SN12C cells assessed as inhibition of cell growth measured after 48 hrs by SRB assay
[22] = test system: TK-10; experiment: Antiproliferative activity against human TK10 cells assessed as inhibition of cell growth measured after 48 hrs by SRB assay; conditions: TK-10, 48 h
[23] = test system: PC-3; experiment: Antiproliferative activity against human PC3 cells assessed as inhibition of cell growth measured after 48 hrs by SRB assay; conditions: PC-3, 48 h
[24] = test system: Hs-578T; experiment: Antiproliferative activity against human Hs 578T cells assessed as inhibition of cell growth measured after 48 hrs by SRB assay
[25] = test system: MDA-MB-468; experiment: Antiproliferative activity against human MDA-MB-468 cells assessed as inhibition of cell growth measured after 48 hrs by SRB assay; conditions: MDA-MB-468, 48 h

Structure (SMILES) | inhibition of growth at 10 µM [1] [%] | inhibition of growth at 10 µM [2] [%] | inhibition of growth at 10 µM [3] [%] | inhibition of growth at 10 µM [4] [%] | inhibition of growth at 10 µM [5] [%] | inhibition of growth at 10 µM [6] [%] | inhibition of growth at 10 µM [7] [%] | inhibition of growth at 10 µM [8] [%] | GI50 [9] [nM] | GI50 [10] [nM] | GI50 [13] [nM] | GI50 [15] [nM] | GI50 [16] [nM] | GI50 [17] [nM] | GI50 [19] [nM] | GI50 [20] [nM] | GI50 [21] [nM] | GI50 [23] [nM] | GI50 [24] [nM] | GI50 [25] [nM] | also measured
O=C1CC(c2ccccc2)Cc2nc3c(Br)cc(Br)cc3cc21 (centres undefined) | 93.5 | 91.7 | 98 | 94.7 | 84.8 | 113 | 70.3 | 116 | 226 | 79.2 | 758 | 211 | 125 | 30.2 | 461 | 813 | 661 | 66.6 | 191 | 1280 | GI50 [11]: 66.8 nM; GI50 [12]: 167 nM; GI50 [14]: 119 nM; GI50 [18]: 1410 nM; GI50 [22]: 700 nM
O=C1CC(c2ccccc2)Cc2nc3ccc(Br)cc3cc21 (centres undefined) | 73 | 97.8 | 91.1 | 89.8 | 78 | 82.9 | 65.7 | 99.7 | 214 | 419 | 707 | 27.1 | 423 | 289 | 825 | 784 | 526 | 254 | 411 | 2840 | GI50 [12]: 3450 nM; GI50 [14]: 94.9 nM
COc1ccc2nc3c(cc2c1)C(=O)CC(C(F)(F)F)C3 (centres undefined) | 16 | 89.1 | 88.4 | 91.3 | 63.4 | 81.1 | 50.8 | 64.4 | 325 | 3030 | 3080 | 143 | 769 | 1830 | – | 6570 | 823 | 835 | 3350 | 1870 | –
O=C1CC(c2ccccc2)Cc2nc3ccc(Cl)cc3cc21 (centres undefined) | 94.7 | 95.6 | 98.3 | 91 | 83.5 | 92 | 69.2 | 89.8 | 211 | 420 | 558 | 26.6 | 375 | 302 | 1020 | 838 | 533 | 280 | 306 | 2470 | –
COc1ccc2nc3c(cc2c1)C(=O)CC(c1ccccc1)C3 (centres undefined) | 8.74 | 90 | 89.2 | 90.7 | 64.2 | 86.8 | 56.1 | 31.7 | 274 | 2070 | 887 | 137 | 2310 | 1230 | – | 4370 | 639 | 715 | 1000 | – | –
